Experiments:
A4573 xenograft = assay: Orthotopic mouse xenograft model, A4573, IP dosing; assay type: in vivo, SCID/bg mice; details: for Tumor histology (hematoxylin and eosin): A4573 tumors, two hours following the 6th dose; for Tumor histology (hematoxylin and eosin) / Regression of tumor volume over 3 days: BID IP 400 mg/kg; for Regression of tumor volume over 3 days: A4573 xenograft, 3-day, six-dose
Method: (§1) A series of models that combined results from in vitro colony assays and in vivo PK data were developed to evaluate several potential dosing schemes for the mice (Supplementary Figures 1A-E). We selected an IP dosing strategy (twice daily (BID) injections of […] racemic mixture) that would maintain a 3 ¼M plasma levels for greater than 72 hours in the mice (Figure 3A). With this IP dosing regimen, xenograft growth of A4573 was 70% less in the YK-4-279 treatment group compared to vehicle control (Figure 3B, p=0.04). […] To confrm the impact of YK-4-279 treatment on xenograft growth, mice with SK-ES xenografts were treated with racemic, (S), or (R)-YK-4-279 until control tumors reached 1 cm^3. Xenograft growth was reduced for those mice receiving both racemic and (S)-YK-4-279 over the control (Figure 3D, p=0.02 and p=0.003, respectively). […] Tumors were analyzed for drug levels of racemic, (R)-, and (S)-YK-4-279. Three of four mice treated with racemic compound had tumor levels of (S)-YK-4-279 that ranged from ~12-35 ¼g eq/g, which correlated with tumor growth ratios of less than 1.0, indicating response to the drug (Figure 3F). Those animals treated with the active (S)-YK-4-279 levels had tumor levels that were below 10 ¼g eq/g (Figure 3F). Tumor levels of (R)-YK-4-279 are also provided (Supplementary Figure 1F).
(§2) In order to evaluate tumors from animals treated in a similar fashion, including resection prior to central necrosis in controls, a 3-day, six-dose, experiment was executed. Treatment was initiated with racemic, (S)-, or (R)-YK-4-279 using BID IP administration at 400 mg/kg when tumors were well established at a volume of 250 to 300 mm^3. Both ES models treated with either racemic or (S)-YK-4-279 regressed by 25–30% of tumor volume over 3 days, while tumors grew in control and (R)-YK-4-279 treated animals (Figures 4A and B). Two hours following the 6th dose, mice were euthanized for tumor analysis. […] To confirm the apoptotic cell death, sections from A4573 tumors were stained with TUNEL (Figures 4D) and there was a 3 – 4 fold increase in TUNEL-positive cells treated with (S)-YK-4-279 compared to (R)-YK-R-279 treated tumors (Figure 4E). […] Levels of each enantiomer were measured in tumor samples and (S)-YK-4-279 levels correlated with clinical regression (Supplemental Figure 2B–E).
(§3) Two million A4573 or SK-ES Ewing's sarcoma cells in 0.1 mL were injected into an orthotopic paraosseous location, adjacent to the left proximal tibia, in 5-week-old female severe combined immunodeficient-beige (SCID/bg) mice (Harlan Laboratories, Inc., Indianapolis, IN). After primary tumors reached 250 – 300 mm^3 size, mice were randomized and received intraperitoneal injection (IP) with vehicle control (0.25% Lecithin solution or DMSO), (S)-YK-4-279, (R)-YK-4-279 or racemic YK-4-279 at a dose of 400 mg/kg twice a day (BID) for 7 days in a week. The tumor volume was determined by the formula (D × d2/6) × p, where D was the longer diameter and d was the shorter diameter. Tumor volume was monitored every day by caliper until the tumor size reaches 1cm^3. Mice were euthanized and primary tumors were collected. For the pharmacodynamics study mice were randomized and received 6 doses treatment with vehicle control (0.25% Lecithin solution or DMSO), (S)-YK-4-279, (R)-YK-4-279 or racemic YK-4-279 at a dose of 400 mg/kg twice a day (BID). Mice were euthanized after 2 hours of last 6th dosing and primary tumors were collected. […]

caveolin-1 = assay: Caveolin-1 IHC staining of xenograft tumors; assay type: in vivo, SCID/bg mice; details: xenograft tumors of mice treated BID IP 400 mg/kg, 3 days
Method: We evaluated the effect of EWS-FLI1 in animals treated with YK-4-279 upon caveolin-1, a recognized direct gene target whose expression is increased by EWS-FLI1 [22, 23]. […] In addition, the staining pattern changes from membraneous to a more diffuse pattern (Figure 5A).
as §3, with “collected.” for “collected. For the pharmacodynamics study mice were randomized and received 6 doses treatment with vehicle control (0.25% Lecithin solution or DMSO), (S)-YK-4-279, (R)-YK-4-279 or racemic YK-4-279 at a dose of 400 mg/kg twice a day (BID). Mice were euthanized after 2 hours of last 6th dosing and primary tumors were collected.”
Five micron sections from formalin fxed paraffin embedded tissues were de-paraffinized with xylenes and rehydrated through a graded alcohol series. […] The sections were evaluated, in blinded fashion two times, by a pathologist (B.K.).

SK-ES xenograft = assay: Orthotopic mouse xenograft model, SK-ES, IP dosing; assay type: in vivo; details: for Regression of tumor volume over 3 days: SK-ES xenograft, 3-day, six-dose
Method: as §1, §2
Two million A4573 or SK-ES Ewing's sarcoma cells in 0.1 mL were injected into an orthotopic paraosseous location, adjacent to the left proximal tibia, in 5-week-old female severe combined immunodeficient-beige (SCID/bg) mice (Harlan Laboratories, Inc., Indianapolis, IN). After primary tumors reached 250 – 300 mm^3 size, mice were randomized and received intraperitoneal injection (IP) with vehicle control (0.25% Lecithin solution or DMSO), (S)-YK-4-279, (R)-YK-4-279 or racemic YK-4-279 at a dose of 400 mg/kg twice a day (BID) for 7 days in a week. The tumor volume was determined by the formula (D × d2/6) × p, where D was the longer diameter and d was the shorter diameter. Tumor volume was monitored every day by caliper until the tumor size reaches 1cm^3. Mice were euthanized and primary tumors were collected. For the pharmacodynamics study mice were randomized and received 6 doses treatment with vehicle control (0.25% Lecithin solution or DMSO), (S)-YK-4-279, (R)-YK-4-279 or racemic YK-4-279 at a dose of 400 mg/kg twice a day (BID). Mice were euthanized after 2 hours of last 6th dosing and primary tumors were collected. Animal studies were approved by an Institutional Animal Care and Use Committee of the Georgetown University.
The plasma and tumor sample analysis was performed using calibration standards and Quality Control (QC) samples prepared in control rat or mouse plasma and tumor tissues. Plasma and tumor calibration standards were prepared from stock solutions of YK-4-279. […]

SMILES | Tumor histology (hematoxylin and eosin) (A4573 xenograft) | Regression of tumor volume over 3 days (A4573 xenograft) | Caveolin-1 immunohistochemical staining (caveolin-1) | Regression of tumor volume over 3 days (SK-ES xenograft; BID IP 400 mg/kg) | Xenograft growth less than vehicle control (A4573 xenograft; A4573 xenograft mice, BID IP racemic mixture (375 mg/kg in text, 400 mg/kg in Figure 3 legend), p=0.04) [%] | Overall survival (SK-ES xenograft; SK-ES xenograft mice, BID IP 400 mg/kg, p=0.013 vs control) | Xenograft growth less than control group (SK-ES xenograft; SK-ES xenograft mice, BID IP racemic mixture (375 mg/kg in text, 400 mg/kg in Figure 3 legend), p=0.02) [%] | Xenograft growth over the control (SK-ES xenograft; SK-ES xenografts, BID IP 400 mg/kg until control tumors reached 1 cm^3) | Tumor growth ratios (SK-ES xenograft; SK-ES xenografts, three of four mice treated with racemic compound)
COc1ccc(C(=O)C[C@]2(O)C(=O)Nc3c(Cl)ccc(Cl)c32)cc1 [(R)-YK-4-279] | healthy tumor cells, but fewer mitotic figures than the DMSO control | tumors grew | expected membrane caveolin-1 expression | tumors grew | – | – | – | – | –
COc1ccc(C(=O)CC2(O)C(=O)Nc3c(Cl)ccc(Cl)c32)cc1 (stereo not shown) [YK-4-279] | vacuolar cell death and nuclear fragmentation consistent with apoptosis | 25–30% | reduced caveolin-1 staining | 25–30% | 70 | improved overall survival | 70 | reduced | less than 1.0

From paper PMC3964211, “Pharmacokinetic modeling optimizes inhibition of the ‘undruggable’ EWS-FLI1 transcription factor in Ewing Sarcoma” (Oncotarget, 2013)
